Experimental data published in patent US5192766A, “N-acryloylpiperazine derivatives, their preparation and their use as PAF antagonists” (Sankyo Company, Limited, priority 1989, dated 1993).
pIC50: −log10 of the molar value.

Key:
PAF-induced hypotension = assay: Inhibition of PAF-induced hypotension; assay type: in vivo, Wistar-Imamichi rats; conditions: Rattus norvegicus, iv, 1 min; anesthetized rats; l-C16:0 PAF 10 ng/kg i.v.; test compound i.v. cumulatively, 1 min before PAF; read-out: Inhibitory effect ID50
Method: Inhibition of PAF-induced hypotension
The test animals used were Wistar-Imamichi rats, each weighing from 350 to 450 g, anesthetized with Inactin (90 mg/kd, intraperitoneally).
Blood pressure was continuously measured throughout the experiment through a cannula inserted into the femoral artery. Each drug sample to be tested was intravenously injected through a cannula inserted into the femoral vein.
At first, l-C16:0 PAF was injected intravenously in amounts of 10 ng/kg at each injection at intervals of 5 minutes until the degree of the hypotensive response became constant. Then, each drug sample to be treated was intravenously injected. After one minute, the same dose of PAF was administered again. The drug sample was cumulatively administered. From its inhibition rate against the PAF-induced hypotensive effect, the 50% inhibitive dose (ID50) was determined, and is regarded as an index of PAF-antagonist activity. For administration, the PAF was dissolved in physiological saline solution containing 0.25% w/v of bovine serum albumin (BSA). The compounds under test were dissolved in dimethylformamide for use.
CV-3988 is disclosed in U.S. Pat. No. 4,408,052, and is structurally related to PAF itself.
In this Table, the compounds of the invention are identified by the number of the foregoing Example in which they were prepared.

[1] = tested on: blood platelet (PAF-induced aggregation); assay: Inhibitory effect in vitro against PAF-induced blood platelet aggregation; assay type: cell-based; conditions: Oryctolagus cuniculus, 5 min; rabbit platelet rich plasma; l-C16:0 PAF final 10^-8 ~3×10^-8 M; 5 min observation
Method: Inhibitory effect in vitro against PAF-induced blood platelet aggregation
Blood samples were drawn from a rabbit and one part by volume of each sample was immediately mixed with 1/9 part of a 3.8% w/v aqueous solution of sodium citrate. The samples were centrifuged at 150×G at room temperature for 15 minutes to obtain a platelet rich plasma (PRP) fraction from the upper layer. The remains were further centrifuged at 1,000×G for 15 minutes to obtain a platelet poor plasma (PPP) fraction from the upper layer. The PRP and PPP fractions were mixed appropriately, to obtain a sample in which the final count of blood platelets was adjusted to be 6×10^5 per ul. According to the method reported by Born et al. [G. V. R. Born et al.: J. Physiol. 62, 67-68 (1962)], blood platelet aggregation was determined by an increase in light transmission measured using an aggregometer. 3 ul of a solution of the test compound in dimethyl sulfoxide were added to 272 ul of PRP, and, after 1 minute, 25 ul of a physiological saline solution containing l-c16:0 PAF (at a final concentration of 10^-8 ~3×10^-8 M) were added. […] At the end of this value and the value of PAF-induced aggregation which was observed when dimethyl sulfoxide only was used without the addition of any test compound. IC50 values were calculated from the dose-response curve.

| pIC50 [1] | SMILES | ED50 (PAF-induced hypotension) |
| --- | --- | --- |
| 7.52 | CCCOc1cccc(/C(=C/C(=O)N2CCN(C(=O)c3cc(OC)c(OC)c(OC)c3)CC2)c2cccc(Cl)c2)c1 [Example 70, 1-[(Z)-3-(3-Propoxyphenyl)-3-(3-chlorophenyl)acryloyl]-4-(3,4,5-trimethoxybenzoyl)piperazine] | 0.0033 mg/kg |
| 6.64 | COc1ccc(C(=CC(=O)N2CCN(C(=O)c3cc(OC)c(OC)c(OC)c3)CC2)c2ccc(OC)c(OC)c2)cc1OC [Example 28, 1-[Bis(3,4-dimethoxyphenyl)acryloyl]-4-(3,4,5-trimethoxybenzoyl)piperazine] | 0.039 mg/kg |
| 6.96 | COc1ccc(/C(=C\C(=O)N2CCN(C(=O)c3cc(OC)c(OC)c(OC)c3)CC2)c2cccc(C)c2)cc1OC [Example 40, 1-[(Z)-3-(3,4-Dimethoxyphenyl)-3-(3-methylphenyl)acryloyl]-4-(3,4,5-trimethoxybenzoyl)piperazine] | – |
| 6.96 | COc1cc(C(=O)N2CCN(C(=O)/C=C(/c3cccc(C)c3)c3ccc(Cl)c(Cl)c3)CC2)cc(OC)c1OC [Example 37, 1-[(Z)-3-(3,4-Dichlorophenyl)-3-(3-methylphenyl)acryloyl]-4-(3,4,5-trimethoxybenzoyl)piperazine] | – |
| – | COc1ccc(/C(=C/C(=O)N2CCN(C(=O)c3cc(OC)c(OC)c(OC)c3)CC2)c2cccc(C)c2)cc1OC [Example 39, 1-[(E)-3-(3,4-Dimethoxyphenyl)-3-(3-methylphenyl)acryloyl]-4-(3,4,5-trimethoxybenzoyl)piperazine] | 0.008 mg/kg |
| 6.66 | COc1cc(C(=O)N2CCN(C(=O)C=C(c3ccc(Cl)cc3)c3ccc(Cl)cc3)CC2)cc(OC)c1OC [Example 3, 1-[3,3-Bis(4-chlorophenyl)acryloyl]-4-(3,4,5-trimethoxybenzoyl)piperazine] | 0.048 mg/kg |
| 6.96 | COc1ccc(/C(=C/C(=O)N2CCN(C(=O)c3cc(OC)c(OC)c(OC)c3)CC2)c2ccc(C)cc2)cc1OC [Example 35, 1-[(E)-3-(3,4-Dimethoxyphenyl)-3-(4-methylphenyl)acryloyl]-4-(3,4,5-trimethoxybenzoyl)piperazine] | 0.012 mg/kg |
| – | COc1cc(C(=O)N2CCN(C(=O)C=C(c3cccs3)c3cccs3)CC2)cc(OC)c1OC [Example 4, 1-[3,3-Bis(2-thienyl)acryloyl]-4-(3,4,5-trimethoxybenzoyl)piperazine] | 0.074 mg/kg |
| 7.52 | CCc1ccc(/C(=C/C(=O)N2CCN(C(=O)c3cc(OC)c(OC)c(OC)c3)CC2)c2ccc(Cl)c(Cl)c2)cc1 [Example 52, 1-[(Z)-3-(3,4-Dichlorphenyl)-3-(4-ethylphenyl)acryloyl]-4-(3,4,5-trimethoxybenzoyl)piperazine] | 0.0084 mg/kg |
| – | COc1cc(C(=O)N2CCN(C(=O)/C=C(\c3ccccc3)c3ccc4ccccc4c3)CC2)cc(OC)c1OC [Example 48, 1-[(E)-3-(2-Naphthyl)-3-phenylacryloyl]-4-(3,4,5-trimethoxybenzoyl)piperazine] | 0.012 mg/kg |
| – | COc1ccc(/C(=C\C(=O)N2CCN(C(=O)c3cc(OC)c(OC)c(OC)c3)CC2)c2cccc(C(F)(F)F)c2)cc1OC [Example 34, 1-[(Z)-3-(3,4-Dimethoxyphenyl)-3-(3-trifluoromethylphenyl)acryloyl]-4-(3,4,5-trimethoxybenzoyl)piperazine] | 0.021 mg/kg |
| 7.28 | CCCOc1ccc(/C(=C/C(=O)N2CCN(C(=O)c3cc(OC)c(OC)c(OC)c3)CC2)c2ccccc2)cc1 [Example 53, 1-[(E)-3-Phenyl-3-(4-propoxyphenyl)acryloyl]-4-(3,4,5-trimethoxybenzoyl)piperazine] | 0.0074 mg/kg |
| 7.24 | COc1ccc(/C(=C/C(=O)N2CCN(C(=O)c3cc(OC)c(OC)c(OC)c3)CC2)c2cccc(F)c2)cc1 [Example 74, 1-[(Z)-3-(4-Methoxyphenyl)-3-(3-fluorophenyl)acryloyl]-4-(3,4,5-trimethoxybenzoyl)piperazine] | 0.0055 mg/kg |
| 7.54 | COc1ccc(/C(=C/C(=O)N2CCN(C(=O)c3cc(OC)c(OC)c(OC)c3)CC2)c2ccc(Cl)cc2Cl)cc1 [Example 78, 1-[(Z)-3-(4-Methoxyphenyl)-3-(2,4-dichlorophenyl)acryloyl]-4-(3,4,5-trimethoxybenzoyl)piperazine] | 0.0073 mg/kg |
| – | COc1cc(C(=O)N2CCN(C(=O)C=C(c3ccc(F)cc3)c3ccc(F)cc3)CC2)cc(OC)c1OC [Example 25, 1[Bis(4-fluorophenyl)acryloyl]-4-(3,4,5-trimethoxybenzoyl)piperazine] | 0.052 mg/kg |
| 8.00 | COc1ccc(/C(=C/C(=O)N2CCN(C(=O)c3cc(OC)c(OC)c(OC)c3)CC2)c2cc(C)cc(C)c2)cc1 [Example 82, 1-[(Z)-3-(4-Methoxyphenyl)-3-(3,5-dimethylphenyl)acryloyl]-4-(3,4,5-trimethoxybenzoyl)piperazine] | 0.013 mg/kg |
| 7.55 | COc1ccc(/C(=C/C(=O)N2CCN(C(=O)c3cc(OC)c(OC)c(OC)c3)CC2)c2cc(Cl)ccc2Cl)cc1 [Example 80, 1-[(Z)-3-(4-Methoxyphenyl)-3-(2,5-dichlorophenyl)acryloyl]-4-(3,4,5-trimethoxybenzoyl)piperazine] | 0.0065 mg/kg |
| 7.42 | CCCOc1ccc(/C(=C/C(=O)N2CCN(C(=O)c3cc(OC)c(OC)c(OC)c3)CC2)c2cccc(Cl)c2)cc1 [Example 71, 1-[(Z)-3-(4-Propoxyphenyl)-3-(3-chlorophenyl)acryloyl]-4-(3,4,5-trimethoxybenzoyl)piperazine] | 0.0074 mg/kg |
| 6.82 | COc1ccc(/C(=C/C(=O)N2CCN(C(=O)c3cc(OC)c(OC)c(OC)c3)CC2)c2ccc(OC)c(OC)c2)cc1 [Example 30, 1-[(Z)-3-(3,4-Dimethoxyphenyl)-3-(4-methoxyphenyl)acryloyl]-4-(3,4,5-trimethoxybenzoyl)piperazine] | 0.044 mg/kg |
| 7.07 | COc1ccc(/C(=C/C(=O)N2CCN(C(=O)c3cc(OC)c(OC)c(OC)c3)CC2)c2cccc(Br)c2)cc1 [Example 73, 1-[(Z)-3-(4-Methoxyphenyl)-3-(3-bromophenyl)acryloyl]-4-(3,4,5-trimethoxybenzoyl)piperazine] | 0.0084 mg/kg |
| – | COc1ccc(/C(=C/C(=O)N2CCN(C(=O)c3cc(OC)c(OC)c(OC)c3)CC2)c2c(Cl)cccc2Cl)cc1 [Example 79, 1-[(Z)-3-(4-Methoxyphenyl)-3-(2,6-dichlorophenyl)acryloyl]-4-(3,4,5-trimethoxybenzoyl)piperazine] | 0.0066 mg/kg |
| – | CCOc1ccc(/C(=C/C(=O)N2CCN(C(=O)c3cc(OC)c(OC)c(OC)c3)CC2)c2cccc(F)c2)cc1 [Example 88, 1-[(Z)-3-(4-Ethoxyphenyl)-3-(3-fluorophenyl)acryloyl]-4-(3,4,5-trimethoxybenzoyl)piperazine] | 0.092 mg/kg |
| 7.20 | COc1ccc(/C(=C/C(=O)N2CCN(C(=O)c3cc(OC)c(OC)c(OC)c3)CC2)c2cccc(Cl)c2)cc1OC [Example 17, 1-[(Z)-3-(3-Chlorophenyl)-3-(3,4-dimethoxyphenyl)acryloyl]-4-(3,4,5-trimethoxybenzoyl)piperazine] | 0.0083 mg/kg |
| – | CCc1ccc(/C(=C/C(=O)N2CCN(C(=O)c3cc(OC)c(OC)c(OC)c3)CC2)c2cc(Cl)cc(Cl)c2)cc1 [Example 86, 1-[(Z)-3-(4-Ethylphenyl)-3-(3,5-dichlorophenyl)acryloyl]-4-(3,4,5-trimethoxybenzoyl)piperazine] | 0.015 mg/kg |
| – | COc1ccc(/C(=C\C(=O)N2CCN(C(=O)c3cc(OC)c(OC)c(OC)c3)CC2)c2ccc(Cl)cc2)cc1OC [Example 16, 1-[(Z)-3-(4-Chlorophenyl)-3-(3,4-dimethoxyphenyl)acryloyl]-4-(3,4,5-trimethoxybenzoyl)piperazine] | 0.074 mg/kg |
| – | COc1ccc(/C(=C\C(=O)N2CCN(C(=O)c3cc(OC)c(OC)c(OC)c3)CC2)c2cccc(Cl)c2)cc1OC [Example 18, 1-[(E)-3-(3-Chlorophenyl)-3-(3,4-dimethoxyphenyl)acryloyl]-4-(3,4,5-trimethoxybenzoyl)piperazine] | 0.026 mg/kg |
| – | COc1ccc(/C(=C\C(=O)N2CCN(C(=O)c3cc(OC)c(OC)c(OC)c3)CC2)c2ccccc2)cc1OC [Example 8, 1-[(Z)-3-(3,4-Dimethoxyphenyl)cinnamoyl]-4-(3,4,5-trimethoxybenzoyl)piperazine] | 0.058 mg/kg |
